Data reported in PubChem BioAssay AID1421 (Emory University Molecular Libraries Screening Center, 2008).
Calls of active or inactive are those of the source. How the calls were made is not given here.

Biological target: Prostaglandin E2 receptor EP2 subtype (Homo sapiens) (UniProt P43116)
Experiment: EP2 receptor modulators, dose response, cell-based, human EP2, PGE2 EC50 shift (AID 1421)
Details: EP2-expressing cells, PGE2 EC50 shift by compound

Sequence of Prostaglandin E2 receptor EP2 subtype (Homo sapiens) (P43116 whole entry, looked up): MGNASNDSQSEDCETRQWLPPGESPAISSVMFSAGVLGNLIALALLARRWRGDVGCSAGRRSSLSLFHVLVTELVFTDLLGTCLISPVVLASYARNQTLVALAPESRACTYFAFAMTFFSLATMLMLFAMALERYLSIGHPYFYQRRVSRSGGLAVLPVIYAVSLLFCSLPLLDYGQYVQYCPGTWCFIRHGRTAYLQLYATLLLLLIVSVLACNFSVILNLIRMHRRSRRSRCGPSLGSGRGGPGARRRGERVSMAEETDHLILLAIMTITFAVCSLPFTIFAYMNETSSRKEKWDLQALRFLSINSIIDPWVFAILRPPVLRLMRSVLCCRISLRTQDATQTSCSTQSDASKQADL

Compound | outcome
CC1CCC(C(C)C)C(OC(=O)COC(=O)c2ccc(=O)[nH]c2)C1 (stereo not given) | active
CC(C)CCNC(=O)c1c(N)n(CC2CCCO2)c2nc3ccccc3nc12 (stereo not given) | active
CCOC(=O)c1c(NC(=O)c2ccoc2C)sc(C)c1C | active
CCOP(=O)(OCC)c1nc(-c2cccc3ccccc23)oc1NCc1ccc(OC)cc1 | active
CC(C)Cc1nc(N2CCCCC2)c(C#N)c2c1CCC2 | active
O=C(Nc1ccccc1N1CCCCC1)c1cnccn1 | active
CC(C)(C)C1CCC(OC(=O)c2ccncc2)CC1 (stereo not given) | active
CCOC(=O)c1cc(CC)sc1NC(=O)c1ccc2c(c1)OCCO2 | active
COCCn1c(SC(C(=O)Nc2cc(C)ccc2OC)c2ccccc2)nnc1-c1ccc(Cl)cc1 (stereo not given) | active
Cc1ccc(-c2cc(C(F)(F)F)nn2-c2ccc(S(N)(=O)=O)cc2)cc1 | active
CCSc1nc2sc3c(c2c(=O)n1CC)CC(C)(C)OC3 | active

Same assay, conditions: EP2-expressing cells, PGE2 EC50 shift by compound; measured here: PGE2 EC50 at 6.7 uM compound

Compound | PGE2 EC50 with compound [nM]
CCCCc1nc(N2CCOCC2)c(C#N)c2c1CCCC2 | 0.98
COc1ccc(-c2csc3nc(C)nc(N4CCC(C)CC4)c23)cc1OC | 0.95
O=C(c1ccc(Cl)cc1)c1oc2ccccc2c1CS(=O)c1ccc(Cl)cc1 (stereo not given) | 0.88
CCOC(=O)c1cnc2ccc(OCC)cc2c1N(C)Cc1ccccc1 | 2.48
c1ccc(-c2noc(CN3CCN(C(c4ccccc4)c4ccccc4)CC3)n2)cc1 | 0.73
CC1CCC(C(C)C)C(OC(=O)COC(=O)c2ccc(=O)[nH]c2)C1 (stereo not given) | 1.4
Cc1ccc(N(Cc2ccccc2)Cc2ccccc2)cc1 | 1.7
CC(C)CCNC(=O)c1c(N)n(CC2CCCO2)c2nc3ccccc3nc12 (stereo not given) | 0.95
O=C(COc1ccccc1)Nc1ccccc1N1CCN(c2ccccc2)CC1 | 1.48
CCOc1ccc(-n2nc3c(=S)[nH]nc(C)c3c2C)cc1 | 3.04
CCCCn1c(-c2csc3c2CCCC3)n[nH]c1=S | 1.25
CCOC(=O)c1c(NC(=O)c2ccoc2C)sc(C)c1C | 0.94
Cc1ccc(S(=O)(=O)Nc2ccc(Cl)cc2C(=O)c2ccc(F)cc2)cc1 | 0.97
COC(=O)c1c(-c2ccc(F)cc2)csc1NC(=O)C1CCCO1 (stereo not given) | 2.48
CCC(c1nnnn1C1CCCC1)N(Cc1cccs1)Cc1cc2cc(C)ccc2[nH]c1=O (stereo not given) | 0.33
CCOc1ccc2cc(C#N)c(SCC(=O)NC(C)CC)nc2c1 (stereo not given) | 1.36
CCOC(=O)c1oc2ccccc2c1NC(=O)c1cccc(OC)c1OC | 0.98
C[C@H](CN(C)C)C(=O)c1ccccc1C(=O)O | 1.41
Cc1ccccc1-n1c(=O)[nH]c(=O)c2c(N)c(C(=O)c3ccc(Cl)cc3)sc21 | 0.86
CCOP(=O)(OCC)c1nc(-c2cccc3ccccc23)oc1NCc1ccc(OC)cc1 | 0.72
CC(C)(C)C1CCc2onc(C(=O)Nc3cccnc3)c2C1 (stereo not given) | 1.31
O=C(O)CCCCCCCCCCCc1ccccc1 | 0.88
CCCn1cnc2sc(CC)cc2c1=O | 1.25
O=C(CSc1nc2ccccc2o1)Nc1ccccc1N1CCCCCC1 | 0.78
CC1(c2cc([N+](=O)[O-])cc([N+](=O)[O-])c2)CC(C)(C)N(C(=O)c2ccccc2)c2ccccc21 (stereo not given) | 1.32
CC(C)Cc1nc(N2CCCCC2)c(C#N)c2c1CCC2 | 1.37

Compound | PGE2 EC50 with compound [nM]
CCCOc1ccccc1Cn1c(=O)oc2ccc(C)cc21 | 2.64
C/C(=N\N=C(c1ccccc1)c1ccccc1)c1ccco1 | 0.97
COCCCN(C(=O)c1ccco1)c1nc(-c2cc(OC)ccc2OC)cs1 | 0.9
C/C(=N\N(Cc1ccccc1)c1ccccc1)c1ccncc1 | 1.48
Cc1cc2cc(CN(Cc3nnnn3C3CCCCC3)CC3CCCO3)c(=O)[nH]c2cc1C (stereo not given) | 0.97
CCSc1nc2ccccc2n1Cc1ccccc1F | 0.94
O=C(Nc1ccccc1N1CCCCC1)c1cnccn1 | 0.93
CCCCN1C=C(C(=O)OC)C(c2ccccc2Cl)C(C(=O)OC)=C1 | 2.72
CNC(=O)NC(=O)CSc1nc(-c2cccs2)c(C#N)c(=O)[nH]1 | 3.08
CCN1CCN(c2c(Cl)cccc2NC(=O)c2ccc(Br)o2)CC1 | 2.53
COc1ccc(CCN(Cc2nc(-c3ccccc3)no2)Cc2nc(-c3ccccc3)no2)cc1OC | 1.2
C(=N\N1CCN(C2c3ccccc3-c3ccccc32)CC1)/c1cccnc1 | 1.54
Cc1ccccc1Cn1c(-c2cncs2)nc2ccccc21 | 2.57
CC(C)(C)C1CCC(OC(=O)c2ccncc2)CC1 (stereo not given) | 1.16
O=C(CSc1ncnc2c1oc1ccccc12)Nc1ccccc1F | 1.86
Cc1ccccc1Cn1c2ccccc2c2cn[nH]c(=O)c21 | 1.15
CCSc1nc2c(c(=O)[nH]c(=O)n2C)n1Cc1ccc(Cl)cc1 | 1.24
CC1Cc2ccccc2N1CC(=O)NC(c1ccccc1)c1ccccc1 (stereo not given) | 1.48
Cc1ccc(C(=O)N2N=C(c3ccccc3)CC2(O)C(F)(F)F)o1 (stereo not given) | 1.62
Cc1cc(Nc2ccc(Br)cc2)n2nc(C)nc2n1 | 1.06
COc1ccc(S(=O)(=O)N(Cc2cccs2)C2CCCC2)cc1 | 1.26
CCOC(=O)c1cc(CC)sc1NC(=O)c1ccc2c(c1)OCCO2 | 0.97
O=C(CSCc1cccc(Cl)c1)Nc1ccccc1-c1ccccc1 | 0.74
Cc1c(C(=O)Nc2cccc3cccnc23)oc2ccccc12 | 0.72
CCOC(=O)c1ccccc1NC(=O)CSc1ccccc1 | 1.07
COc1cccc(/C=N/c2oc(-c3ccccc3)cc2C#N)c1O | 1.17

Compound | PGE2 EC50 with compound [nM]
COC(=O)CSc1nc(Cc2ccccc2)nc2ccccc12 | 2.72
COc1ccc2cc3c(N)nn(C(=O)C4CCC(C(C)(C)C)CC4)c3nc2c1 (stereo not given) | 1.08
CCN(CC)P(=O)(Nc1ccccc1Br)c1ccc(N(C)C)cc1NC(=O)c1ccco1 (stereo not given) | 1.19
CCCCOP(=O)(OCCCC)C(Nc1ccccc1)c1ccc2c(c1)OCO2 (stereo not given) | 0.8
COCCn1c(SC(C(=O)Nc2cc(C)ccc2OC)c2ccccc2)nnc1-c1ccc(Cl)cc1 (stereo not given) | 1.44
COc1cccc2[nH]c3c(N4CCCCC4)ncnc3c12 | 0.6
CCOC(=O)c1sc2nc(C)nc(N3CCN(c4ncccn4)CC3)c2c1C | 0.62
CC(=O)Oc1c2c(c3c(c1CC=C(C)C)O[C@]14C(=C[C@@H]5CC1C(C)(C)OC4(C/C=C(\C)C(=O)O)C5=O)C3=O)OC(C)(CCC=C(C)C)C=C2 (stereo not given in full) | 0.89
C#CCSc1nc(Cc2ccc(Cl)cc2)nc2ccccc12 | 1.22
CCOC(=O)c1c(NC(=O)c2ccn(CC)n2)sc2c1CCCC2 | 1.14
COC(=O)c1ccc(-n2nc(C(F)(F)F)c3c2-c2ccoc2CC3)cc1 | 0.79
Cc1cc(C)n(CCOc2ccc(Cl)cc2Cl)n1 | 0.63
CCn1c2ccc(OC)cc2c2nc3ccccc3nc21 | 2.47
COc1cc(O)c2c(=O)cc(C)oc2c1CC=C(C)C | 2.64
CCOC(=O)Cn1c(=S)[nH]c2c(oc3ccc(Cl)cc32)c1=O | 2.77
CCc1cc2cc(C)cc(C)c2nc1SCC(=O)N1CCCC1 | 3.07
O=C(CN1CCN(Cc2ccccc2)CC1)Nc1ccccc1-c1ccccc1 | 2.97
CCOC(=O)c1c(C)nc2ccccc2c1-c1ccccc1 | 1.31
Cc1ccc(-c2nc(P(=O)(c3ccccc3)c3ccccc3)c(N3CCOCC3)o2)cc1 | 1.18
Cc1ccc(-c2nnc(N3CCC(C)CC3)c3ccccc23)cc1 | 1.39
CCOC(=O)c1c(CC(C)C)csc1NC(=O)CCl | 1.13
Cc1ccc(-c2cc(C(F)(F)F)nn2-c2ccc(S(N)(=O)=O)cc2)cc1 | 1.28
O=S1(=O)N=C(N(CCO)/N=C/C=C/c2ccccc2)c2ccccc21 | 2.08
CCOP(=O)(OCC)c1nc(-c2cccc3ccccc23)oc1N1CCCCC1 | 1.11
Cc1cc(O)c(C=O)c2c1C(=O)Oc1c(C)c(O)c3c(c1O2)C(O)OC3=O (stereo not given) | 0.76
N#CCSc1nc2ccccc2c(=O)n1C1CCCCC1 | 1.09

Compound | PGE2 EC50 with compound [nM]
CCCCOc1c(Br)cc(/C=N/O)cc1OCC | 0.93
C=CCn1c(CNC(=O)c2cccs2)nnc1SCC(=O)c1ccc(Br)cc1 | 1.83
Cn1c(=O)[nH]c(=O)c2c1nc(CN1CCN(c3ccccc3F)CC1)n2CCCc1ccccc1 | 0.83
COc1ccccc1C(=O)NC(=S)Nc1cc(C(=O)O)ccc1C | 1.18
COc1ccc(-c2cc(C(F)(F)F)nc(NCc3ccco3)n2)cc1OC | 0.53
Cc1cc(NC(=O)C2=C(O)c3ccccc3S(=O)(=O)N2C)no1 | 1.8
CC(=O)CSc1nc(-c2cccs2)c(C#N)c(=O)[nH]1 | 2.81
O=c1[nH]c(SCc2cccc(Cl)c2)nc2c1CCCC2 | 0.77
COC(=O)c1ccc(-c2ccco2)n1Cc1ccccc1Cl | 1.03
O=C(Nc1cc(S(=O)(=O)Nc2ccc(Cl)cc2)ccc1N1CCCCC1)c1ccc(F)cc1Cl | 0.87
O=C(O)c1nn(CC(=O)N(C2CCCCC2)C2CCCCC2)c(=O)c2ccccc12 | 1.12
C=CCNC(=S)NNc1nc(Nc2ccccc2)nc(N2CCCCC2)n1 | 1.42
C/C=C(\C)c1nnc(NC(=O)OCC)s1 | 2.65
Cc1cc(C)c(C)c(Cn2c(CO)nc3ccccc32)c1C | 0.6
CCSc1nc2sc3c(c2c(=O)n1CC)CC(C)(C)OC3 | 0.96
COc1ccc(-n2c(-c3ccccc3)nnc2-c2ccc(Cl)cc2)cc1 | 1.23
Cc1cc(Oc2ccccc2)nc(NCc2ccccc2)n1 | 0.63
Brc1ccccc1Cn1c(-c2cscn2)nc2ccccc21 | 0.94
CCN(CC)C(=O)c1nn(-c2ccccc2)c2c1C1CCC2(C)C1(C)C (stereo not given) | 1.24
O=c1cc(N2CCCCC2)c(-c2ccccc2)nn1Cc1ccc(F)cc1 | 2.5
Cc1nc2c(-c3ccccc3)c(C)nn2c(C)c1CCC(=O)N1CCOCC1 | 1.09
Oc1ccccc1-c1nc(N2CCCC2)c2ccccc2n1 | 0.64
CCOC(=O)c1c(NC(=O)c2ccc(Br)o2)sc(C)c1CC | 0.94
COC(=O)c1cc(Br)c(=O)n(-c2nccs2)c1 | 2.71
Cc1ccc(-c2nn(-c3ccccc3)cc2CN(Cc2ccccc2)C(=O)c2ccco2)o1 | 0.7
Cc1ccccc1C(=O)Nc1ccccc1Sc1ccccc1 | 0.86
